Consider five compounds from patent publication US7141557B2, “Lipid analogs for treating viral infections” (Wake Forest University, priority 1994, dated 2006).

For orientation: IC50 means the concentration at which inhibition is half-maximal.

In one data set the test system is HIV-1. Kind of data set: Anti-HIV-1 syncytial plaque assay using CEM-SS cell monolayers. The class given is cell-based, human immunodeficiency virus type 1 (HIV-1). Conditions: for IC50: HIV-1 syncytial plaque formation, CEM-SS cell monolayers, plaques counted at five days; for inhibition of HIV-1 activity in CEM-SS cells: in nanomolar concentration. From the text: In brief, CEM-SS cell monolayers were infected with HIV-1. Infected cells were overlaid with RPMI-1640 medium plus 10 percent fetal bovine serum (FBS) supplemented with different concentrations of inhibitor. Plaques were counted at five days after infection. In this assay HIV-1 syncytial plaques are seen as large, multicellular foci (10 to 25 nuclei/syncytium) that appear either brown and granular or clear. Since the number of HIV-1 syncytial plaques correlates with reverse transcriptase (RT) and p24 core antigen activity in the HIV-1 infected cell overlay fluids, the syncytial plaque assay can be used to quantify the amount of infectious virus. Reverse transcriptase activity was assayed according to a described procedure (B. J. Poeisz et al., Proc. Natl. Acad. Scie. (U.S.A.) 77, 7415 (1980)). The activity of p24 core antigen induced by HIV-1 infection of CEM-SS cells was measured spectrophotometrically using the commercial Coulter EIA.

The next data set relates to HBV. Kind of data set: Inhibition of HBV replication in transfected HepG2 cells by ELISA. The note with it: read-out: anti-HBV activity (IC50). The class given is cell-based. The source says: These cells constituitively replicate HBV particles.
On the technique in general: An ELISA detects its analyte on a solid surface through an enzyme-linked reagent.

The subject of data set [1] is HBV-induced DNA, core antigen (HBcAg) and "e" antigen (HBeAg). As to the kind of experiment: Mechanism studies: cellular production of HBV-induced DNA, core antigen and e antigen. In kind it is cell-based.
A further data set relates to CEM-SS cells. Kind of data set: Cytotoxicity by uptake of TdR-H3 into total DNA in CEM-SS cells. The class given is cell-based. Conditions: serial concentrations of compound.
The next data set relates to HepG2 cells. The note with it: read-out: cytotoxicity (TC50); HepG2 cells transfected with HBV genomes; neutral red dye uptake. As to the method:
Human hepatoblastomas (HepG2) cells were tranfected with plasmid DNA containing tandem copies of HBV genomes. These cells constituitively replicate HBV particles. HepG2 cells were treated with varying concentrations of CP-128 to determine the toxic cell concentration (TC50) by neutral red dye uptake. Also, the inhibitory concentration (IC50) of CP-128 for HBV replication was determined by ELISA.

With `CCCCCCCCCCCC(=O)NCC(COP(=O)([O-])OCC[N+](C)(C)C)OCCCCCCCCCC` (stereo not shown) [CP-128, 1-dodecanamido-2-decyloxypropyl-3-phosphocholine], the IC50 is 0.14 µM in the data set with HIV-1, 15.6 µM in the data set with HBV and 31.6 µM in the data set on CEM-SS cells. Besides, the “inhibition of HIV-1 activity in CEM-SS cells” value (“inhibition of HIV-1 activity” below) in the data set with HIV-1 is reported as “substantially inhibit”. The “effect on cellular production of HBV-induced DNA, core antigen (HBcAg) and "e" antigen (HBeAg)” value in data set [1] was “inhibitory effect”. Besides, the CC50 with HepG2 cells came out at 61.7 µM.
In the case of `CCCCCCCCCCCCOCC(COP(=O)([O-])OCC[N+](C)(C)C)OCCCCCCCCCC` (stereo not shown) [CP-129, 1-dodecyloxy-2-decyloxypropyl-3-phosphocholine], in the data set with HIV-1, the IC50 is 0.64 µM and the “inhibition of HIV-1 activity” value is “substantially inhibit”. Also, in the data set with CEM-SS cells, the IC50 was 75.7 µM.
For `CCCCCCCCCCCC(=O)NCC(COP(=O)([O-])OCC[N+](C)(C)C)OCCCCCCCC` (stereo not shown) [CP-130, 1-dodecanamido-2-octyloxypropyl-3-phosphocholine], in that order: 0.11 µM, “substantially inhibit” and 67.2 µM.
The corresponding values for `CCCCCCCCCCCCOC(CNC(=O)CCCCCCCCCCC)COP(=O)([O-])OCC[N+](C)(C)C` (stereo not shown) [CP-131, 1-dodecanamido-2-dodecyloxypropyl-3-phosphocholine] are 0.32 µM, “substantially inhibit” and 36.6 µM.
As to `CCCCCCCCCCCCCCCCSC1CCCC(OP(=O)([O-])OCC[N+](C)(C)C)C1` (stereo not shown) [INK-1, 3-hexadecylthio-cyclohexylphosphocholine], in the data set on HIV-1, the “inhibition of HIV-1 activity” value was “substantially inhibit”.
